Values joined by “and” are separate entries in the source; they are usually repeats but may differ in a detail not shown here. Identical values can stand only once.
Tested on: WM3248 melanoma cells, 486 antibodies
Assay: Reverse phase protein arrays (RPPA)
Type: cell-based, Human
Source text: Pellets were snap frozen in liquid nitrogen and shipped to MD Anderson Cancer Center core RPPA facility for RPPA analysis (Table S5). Three biological replicates for each sample were generated.
Nomenclatures on the RPPA heatmaps: name_of_antibody.species_of_antibody.status_of_antibody. V - antibody validated; C - validation of antibody in progress; Q - antibody nonspecific; E – under evaluation; antibodies raised in M - mouse, G - goat, R - rabbit, or T - rat.

## CN(C)c1cccc(Nc2cc(-c3ccccc3)nc(C3CCNCC3)n2)c1 [ARN22089, N1,N1-dimethyl-N3-(6-phenyl-2-(piperidin-4-yl)pyrimidin-4-yl)benzene-1,3-diamine]
10 uM, single replicates
  RPPA level MMP14.R.V: 0.939 and 1.138
  RPPA level MR1.M.C: 1.059 and 1.005 and 1.063
  RPPA level MRAP.R.C: 1.023 and 1.051
  RPPA level MSH2.R.C: 0.977 and 1.024
  RPPA level MSH6.R.C: 0.940 and 0.976
  RPPA level MSI2.R.C: 1.020 and 0.933
  RPPA level MTCO1.M.V: 1.128 and 0.684
  RPPA level MTSS1.M.C: 1.023 and 1.031
  RPPA level Mcl.1.R.V: 0.823 and 0.973 and 0.929
  RPPA level MelanA.R.C: 0.752 and 0.988 and 1.034
  RPPA level Melanoma.gp100.R.C: 0.837 and 0.959 and 1.052
  RPPA level Merlin.R.C: 1.020 and 0.924
  RPPA level Midkine.R.V: 1.032 and 0.966 and 1.004
  RPPA level Mitofusin.1.R.V: 0.925 and 1.003 and 1.050
  RPPA level Mitofusin.2.R.V: 0.797 and 0.934 and 1.103
  RPPA level Mnk1.R.V: 0.917 and 0.929 and 1.022
  RPPA level mTOR.R.V: 1.016 and 0.918 and 0.854
  RPPA level mTOR_pS2448.R.C: 1.016 and 0.946 and 0.924
  RPPA p21.R.C: 1.203 and 0.773 and 1.055
  RPPA p27.Kip1.R.C: 1.051 and 0.999
  RPPA p27_pT157.R.C: 1.124 and 1.006
  RPPA p27_pT198.R.V: 0.989 and 1.466 and 1.049
  RPPA p38.MAPK.R.V: 0.899 and 0.964 and 1.062
  RPPA p38.MAPK._pT180_Y182.R.V: 0.872 and 0.913 and 0.950
  RPPA p38.a.M.V: 0.966 and 1.049
  RPPA p44.42.MAPK.R.V: 0.852 and 0.899
  RPPA p53.R.C: 0.871 and 0.886 and 0.966
  RPPA p70.S6K1.R.V: 1.046 and 0.827 and 0.882
  RPPA p70.S6K_pT389.R.V: 1.331 and 0.838 and 0.820
  RPPA p90RSK_pT573.R.C: 1.224 and 0.922 and 1.014
10 uM, single samples
  RPPA DNMT1.R.V: 1.052 and 0.962 and 1.050
  RPPA DRP1.R.V: 1.012 and 0.957 and 0.978
  RPPA DUSP4.R.V: 0.821 and 0.862 and 1.012
  RPPA DUSP6.R.C: 1.063 and 0.981 and 0.768
  RPPA DYRK1B.R.C: 1.057
  RPPA Dvl3.R.V: 0.885 and 1.058 and 1.012
  RPPA E2F1.R.V: 1.030 and 1.011
  RPPA E.Cadherin.R.V: 0.941 and 1.144 and 1.080
  RPPA EGFR.R.V: 0.824 and 0.981 and 0.985
  RPPA EGFR_pY1068.R.C: 0.993 and 0.982
  RPPA EGFR_pY1173.R.V: 0.968 and 1.017 and 0.987
  RPPA EMA.M.C: 1.080 and 1.274
  RPPA ENY2.M.C: 0.960 and 1.056
  RPPA ER.a.R.V: 0.808 and 0.999 and 1.013
  RPPA ER.a_pS118.R.V: 1.079 and 0.918 and 0.929
  RPPA ERCC1.R.C: 1.102 and 1.123 and 0.975
  RPPA ERCC5.R.C: 0.931 and 0.897 and 0.810
  RPPA ERRalpha.R.V: 1.149 and 0.962
  RPPA EVI1.R.V: 1.129 and 1.023
  RPPA Elk1_pS383.R.C: 0.944 and 1.020 and 1.011
  RPPA Enolase.1.R.V: 0.956 and 0.946
  RPPA Enolase.2.R.V: 1.058 and 1.146 and 1.060
  RPPA EphA2.R.V: 0.798 and 1.104 and 1.103
  RPPA EphA2_pY588.R.C: 0.976 and 0.887
  RPPA Erk5.R.V: 0.766 and 0.899 and 1.062
  RPPA Ets.1.R.V: 1.143 and 1.054 and 1.017
  RPPA FABP5.R.C: 0.909 and 1.032 and 1.076
  RPPA FAK.R.C: 0.856 and 0.998
  RPPA FAK_pY397.R.V: 1.077 and 0.996
  RPPA FANCD2.R.V: 1.119 and 0.953 and 0.957
  RPPA FASN.R.V: 1.052 and 0.855 and 0.656
  RPPA FGF.basic.R.C: 0.867 and 1.005 and 0.952
  RPPA FN14.R.C: 0.860 and 1.189 and 1.048
  RPPA FOXM1.R.V: 1.131 and 0.950 and 0.985
  RPPA FOXO3.R.V: 0.873 and 1.121 and 1.097
  RPPA FRS2.alpha_pY196.R.V: 1.003 and 1.811
  RPPA FTO.R.V: 1.061 and 0.989 and 0.960
  RPPA Fibronectin.R.V: 0.546 and 0.983 and 0.999
  RPPA FoxO3a_pS318_S321.R.C: 1.060 and 0.984
  RPPA G6PD.R.V: 1.051 and 1.085 and 1.058
  RPPA GATA3.M.V: 1.245 and 0.906 and 0.898
  RPPA GATA6.R.V: 1.116 and 0.978
  RPPA GCLC.R.C: 0.924 and 1.030
  RPPA GCLM.R.V: 1.052 and 1.025 and 1.000
  RPPA GCN5L2.R.V: 0.890 and 0.985
  RPPA GGPS1.M.V: 0.998 and 0.974 and 1.046
  RPPA GRB2.R.V: 0.833 and 0.898 and 0.998
  RPPA GRB7.R.V: 0.772 and 1.100
  RPPA GSK.3B.R.C: 0.886 and 0.913 and 0.953
  RPPA GSK.3a.b.M.V: 1.163 and 1.006 and 1.033
  RPPA GSK.3a.b_pS21_S9.R.V: 1.290 and 0.899 and 0.932
  RPPA Gab2.R.V: 0.930 and 0.844
  RPPA Gli1.R.C: 0.975 and 0.972
  RPPA Gli3.R.C: 0.999 and 0.965 and 0.950
  RPPA Glucocorticoid.Receptor.R.V: 1.129 and 1.132 and 0.984
  RPPA Glutamate.D1.2.R.V: 1.103 and 0.990
  RPPA Glutaminase.R.C: 0.915 and 0.958 and 0.933
  RPPA Granzyme.B.R.V: 0.958 and 0.982 and 0.983
  RPPA Grp75.R.C: 1.161 and 1.138 and 0.943
  RPPA Gys.R.V: 0.976 and 0.935 and 1.023
  RPPA Gys_pS641.R.V: 0.940 and 1.033 and 1.049
  RPPA H2AX_pS139.R.C: 1.009 and 0.918
  RPPA H2AX_pS140.M.C: 1.079 and 1.061
  RPPA HER2.M.V: 1.048
  RPPA HER2_pY1248.R.V: 0.857 and 0.890 and 0.990
  RPPA HER3.R.V: 1.151 and 0.962 and 0.842
  RPPA HER3_pY1289.R.C: 0.893 and 0.994
  RPPA HES1.R.V: 0.925 and 1.199 and 0.845
  RPPA Heregulin.R.V: 0.811 and 0.959 and 0.936
  RPPA eEF2K.R.V: 1.065
  RPPA eIF4E.R.V: 1.415 and 0.768 and 0.752
  RPPA eIF4E_pS209.R.V: 0.931 and 1.049 and 1.085
  RPPA eIF4G.R.C: 1.057 and 0.870 and 0.859
20 uM
  RPPA MYH11.R.C Average: 1.101
  RPPA Myosin.IIa.R.C Average: 0.941
  RPPA Myosin.IIa_pS1943.R.V Average: 0.973
  RPPA Myt1.R.C Average: 1.012
  RPPA N.Cadherin.R.V Average: 1.035
  RPPA N.Ras.M.V Average: 0.928
  RPPA NAPSIN.A.R.C Average: 1.046
  RPPA NDRG1_pT346.R.V Average: 0.991
  RPPA NDUFB4.R.V Average: 1.026
  RPPA NRF2.R.C Average: 0.936
  RPPA Notch1.cleaved.R.V Average: 0.890
  RPPA Oct.4.R.C Average: 1.121
  RPPA P.Cadherin.R.C Average: 1.190
  RPPA PAICS.R.C Average: 0.891
  RPPA PAK1.R.V Average: 0.919
  RPPA PAK_pS474_S602_S560.R.V Average: 1.203
  RPPA PAK_pT423_T402.R.C Average: 1.013
  RPPA PAR.R.C Average: 1.051
  RPPA PARG.R.C Average: 1.310
  RPPA PARP.R.V Average: 0.981
  RPPA PAX6.R.V Average: 1.013
  RPPA PAX8.R.C Average: 0.970
  RPPA PCNA.M.C Average: 0.864
  RPPA PD.L1.R.C Average: 0.983
  RPPA PDH.M.V Average: 0.994
  RPPA PDHA1.R.V Average: 1.030
  RPPA PDHK1.R.C Average: 0.963
  RPPA PDK1.R.V Average: 1.096
  RPPA PDK1_pS241.R.V Average: 0.972
  RPPA PEA.15.R.V Average: 0.952
  RPPA PEA.15_pS116.R.V Average: 1.019
  RPPA PERK.R.V Average: 0.988
  RPPA PGM1.R.V Average: 0.940
  RPPA PHGDH.R.C Average: 0.998
  RPPA PHLPP.R.V Average: 1.124
  RPPA PI3K.p85.R.C Average: 0.900
  RPPA PI3K.p110.a.R.C Average: 0.931
  RPPA PKA.a.R.V Average: 0.928
  RPPA PKC.a.b.II_pT638_T641.R.V Average: 0.926
  RPPA PKC.b.II_pS660.R.V Average: 1.079
  RPPA PKCa.R.V Average: 1.559
  RPPA PKM2.R.C Average: 0.899
  RPPA PLC.gamma1_pS1248.R.V Average: 0.895
  RPPA PLC.gamma2_pY759.R.V Average: 0.983
  RPPA PLK1.R.C Average: 0.920
  RPPA PMS2.R.V Average: 0.986
  RPPA PR.R.V Average: 0.956
  RPPA PRAS40.M.C Average: 1.227
  RPPA PRAS40_pT246.R.V Average: 1.102
  RPPA PRC1_pT481.R.C Average: 1.084
  RPPA Patched.R.C Average: 1.079
  RPPA Paxillin.R.C Average: 0.827
  RPPA Pdcd4.R.C Average: 0.990
  RPPA Porin.M.V Average: 1.051
  RPPA p21.R.C Average: 0.828
  RPPA p27.Kip1.R.C Average: 1.157
  RPPA p27_pT157.R.C Average: 1.214
  RPPA p27_pT198.R.V Average: 1.156
  RPPA p38.MAPK.R.V Average: 0.981

From publication PMC9127750, “Structure-based design of CDC42 effector interaction inhibitors for the treatment of cancer” (Cell reports, 2022)
